Literature values in patent US20030230530A1, “Process for the preparation of a combination of Famotidine Polymorphs A and B” (M/S. TONIRA PHARMA LIMITED, priority 2002, published 2003).

Assays:
[1] = background statement, comparison of Polymorph A and B
[2] = background statement, comparison of Polymorph A and B; remark: listed apart in the source

stability of the polymorph [1]	dissolution properties [2]	Structure (SMILES)
more stable	low dissolution properties	N=C(N)Nc1nc(CSCCC(=N)NS(N)(=O)=O)cs1 [Polymorph A, N-Sulfamyl-3-(2-guanidinothiazole-4-yl-methylthio) proionamidine]
metastable	higher dissolution properties	N=C(N)Nc1nc(CSCCC(=N)NS(N)(=O)=O)cs1 [Polymorph B, N-Sulfamyl-3-(2-guanidinothiazole-4-yl-methylthio) proionamidine]
